Data as given in patent US20100209508A1, “Substituted Phenylphosphates as Mutual Prodrugs of Steroids and ß-Agonists for the Treatment of Title Pulmonary Inflammation and Bronchoconstriction” (CORUS PHARMA, INC., priority 2005, published 2010).
Where two headings read alike, the source gives them in different places.

Tests used:
TNF-α = TNF-α secretion (h) (PBMC); assay type: cell-based, human; conditions: LPS (1 μg/ml), 24 h/37° C., EIA, "Not active" = less than 25% inhibition at highest tested concentration 1000 nM; for IC50: read-out: TNF-α secretion IC50
IL-1β = IL-1β secretion (h) (PBMC); assay type: cell-based; conditions: Homo sapiens, LPS (1 μg/ml), 24 h/37° C., EIA
[1] = system: splenic lymphocytes isolated from C57BL/6 mice and CBA mice; experiment: Immunosuppression ([3H]TMD incorporation in mouse splenic lymphocytes); assay type: cell-based; conditions: "Not active" = less than 25% inhibition at 1000 nM
cytokine release = experiment: Panel of standard cell-based in vitro assays evaluating cytokine release inhibition; conditions: prodrugs compared to the steroid drugs (Examples 27 and 62, respectively)
Protocol: The selected compounds of the invention were tested in a panel of standard, cell-based in vitro assays evaluating the cytokine release inhibition and thus the anti-inflammatory activity of a test article. Several potent steroid analogs were identified, namely compounds described in Examples 23, 27, 43, 59 and 62. […] Therefore by masking the pharmacological properties of a respective steroid the mutual prodrug mitigates the oropharyngeal side effects and confines the antiinflammatory activity of a steroid to the endobronchial space, where the lung enzymes (specifically alkaline phosphatase) release the pharmacologically active steroid (see Examples 141-143).

alkaline phosphatase = experiment: Conversion of mutual prodrugs after exposure to alkaline phosphatase (ALP experiment); conditions: for Steroid 13 Concentration / Salmeterol Concentration: mutual prodrug 16 + alkaline phosphatase;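 on all read-outs here: mutual prodrug and its released products quantified by LCMS over time in buffer with alkaline phosphatase, compared against enzyme-free control buffer, incubations running 25–50 hours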
Protocol: Reaction and control solutions were prepared by adding a 500 μL aliquot of a ˜200 ng/μl solution in 1:1 acetonitrile/water of and the compound 16 (or alternatively 17) to 500 μl of a pH 7.4 buffer solution, containing 5 mM tris(hydroxymethyl)aminomethane, 1 mM ZnCl2, 1 mM MgCl2. For the reaction solutions, the buffer also contained approximately 600 ng/μl of alkaline phosphatase (Sigma-Aldrich) whereas the control buffer solutions contained no enzyme. The reaction and control solutions were incubated at 37° C. for 25 to 50 hours. The solutions were analyzed periodically for the respective mutual prodrug and reaction products by LCMS.
The concentration of the alkaline phosphatase in the reaction buffer was ˜600 ng/μL (the enzyme activity of the solution was not determined).
The concentration of the alkaline phosphatase in the buffer added to the stock solution was ˜600 ng/μl (the enzyme activity of the solution was not determined).

[2] = Mus musculus, Splenic lymphocyte, read-out: Immunosuppresion IC50, mouse splenic lymphocytes, 72 h/37° C., [3H]TMD incorporation
[3] = read-out: Immunosuppresion IC50, mouse splenic lymphocytes, 72 h/37° C., [3H]TMD incorporation

`CN1CCN(CC(=O)[C@@]23O[C@H](C4CCCCC4)O[C@@H]2C[C@H]2[C@@H]4CCC5=CC(=O)C=C[C@]5(C)[C@@]4(F)[C@@H](O)C[C@@]23C)CC1` [Example 27, 16,17-[(Cyclohexylmethylene)bis(oxy)]-9-fluoro-11-hydroxy-21-(4-methylpiperazyn-1-yl)-pregna-1,4-diene-3,20-dione[11β,16α(R)]] was tested, and the “TNF-α secretion IC50” value (TNF-α) was “Not active”, the IC50 (IL-1β) was 36 nM and the IC50 [1, 2] was 12 nM. For the same compound, the “anti-inflammatory activity (cytokine release inhibition), assessment in words” value (cytokine release) was “potent”, the “Steroid 13 Concentration” value (alkaline phosphatase; 0.00 Hours @ 37° C.) was 0.0 nmol/mL and the “Steroid 13 Concentration” value (alkaline phosphatase; 0.59 Hours @ 37° C.) was 1.6 nmol/mL. For the same compound, the “Steroid 13 Concentration” value (alkaline phosphatase; 1.19 Hours @ 37° C.) was 4.1 nmol/mL, the “Steroid 13 Concentration” value (alkaline phosphatase; 2.96 Hours @ 37° C.) was 15.3 nmol/mL and the “Steroid 13 Concentration” value (alkaline phosphatase; 3.56 Hours @ 37° C.) was 20.2 nmol/mL. The “Steroid 13 Concentration” value (alkaline phosphatase; 4.15 Hours @ 37° C.) was 21.6 nmol/mL, the “Steroid 13 Concentration” value (alkaline phosphatase; 10.67 Hours @ 37° C.) was 49.5 nmol/mL and the “Steroid 13 Concentration” value (alkaline phosphatase; 15.41 Hours @ 37° C.) was 54.6 nmol/mL. The “Steroid 13 Concentration” value (alkaline phosphatase; 19.56 Hours @ 37° C.) was 62.9 nmol/mL, the “Steroid 13 Concentration” value (alkaline phosphatase; 24.30 Hours @ 37° C.) was 67.3 nmol/mL and the “Steroid 13 Concentration” value (alkaline phosphatase; 30.82 Hours @ 37° C.) was 69.3 nmol/mL. The “Steroid 13 Concentration” value (alkaline phosphatase; 34.97 Hours @ 37° C.) was 66.5 nmol/mL.

In the case of `C[C@]12C=CC(=O)C=C1CC[C@H]1[C@@H]3C[C@H]4O[C@@H](C5CCCCC5)O[C@@]4(C(=O)CO)[C@@]3(C)C[C@H](O)[C@@]12F` [Example 23, 16,17-[(Cyclohexylmethylene)bis(oxy)]-9-fluoro-11,21-dihydroxypregna-1,4-diene-3,20-dione[11β,16α(R)]], the IC50 (TNF-α; Homo sapiens, 24 h) is reported as 1.2 nM, the IC50 [1, 2] is reported as 0.34 nM and the “anti-inflammatory activity (cytokine release inhibition), assessment in words” value (cytokine release) is reported as “potent”.

With `C[C@]12C=CC(=O)C=C1CC[C@H]1[C@@H]3C[C@H]4O[C@@H](C5CCCCC5)O[C@@]4(C(=O)CN4CCC4)[C@@]3(C)C[C@H](O)[C@@]12F` [Example 43, 16,17-[(Cyclohexylmethylene)bis(oxy)]-9-fluoro-11-hydroxy-21-(azetidin-1-yl)-pregna-1,4-diene-3,20-dione[11β,16α(R)]] the IC50 (TNF-α; Homo sapiens, 24 h) was over 1000 nM, the IC50 [1, 2] was 8.8 nM and the “anti-inflammatory activity (cytokine release inhibition), assessment in words” value (cytokine release) was “potent”.

In the case of `C[C@]12C=CC(=O)C=C1CC[C@H]1[C@@H]3C[C@H]4O[C@@H](C5CCCCC5)O[C@@]4(C(=O)CSc4ccncc4)[C@@]3(C)C[C@H](O)[C@@]12F` [Example 47, 16,17-[(Cyclohexylmethylene)bis(oxy)]-9-fluoro-11-hydroxy-21-(pyridin-4-yl-thio)-pregna-1,4-diene-3,20-dione[11β,16α(R)]], the “TNF-α secretion IC50” value (TNF-α) is reported as “Not active” and the IC50 [1, 2] is reported as 66 nM.

`OCc1cc(C(O)CNCCCCCCOCCCCc2ccccc2)ccc1O` (stereo not shown) [Salmeterol, salmeterol, reference compound] was tested, and the “Salmeterol Concentration” value (alkaline phosphatase; 0.00 Hours @ 37° C.) was 0.1 nmol/mL, the “Salmeterol Concentration” value (alkaline phosphatase; 0.59 Hours @ 37° C.) was 1.8 nmol/mL and the “Salmeterol Concentration” value (alkaline phosphatase; 1.19 Hours @ 37° C.) was 4.4 nmol/mL. The “Salmeterol Concentration” value (alkaline phosphatase; 2.96 Hours @ 37° C.) was 12.3 nmol/mL, the “Salmeterol Concentration” value (alkaline phosphatase; 3.56 Hours @ 37° C.) was 14.4 nmol/mL and the “Salmeterol Concentration” value (alkaline phosphatase; 4.15 Hours @ 37° C.) was 17.1 nmol/mL. The “Salmeterol Concentration” value (alkaline phosphatase; 10.67 Hours @ 37° C.) was 34.2 nmol/mL, the “Salmeterol Concentration” value (alkaline phosphatase; 15.41 Hours @ 37° C.) was 41.4 nmol/mL and the “Salmeterol Concentration” value (alkaline phosphatase; 19.56 Hours @ 37° C.) was 44.8 nmol/mL. The “Salmeterol Concentration” value (alkaline phosphatase; 24.30 Hours @ 37° C.) was 46.9 nmol/mL, the “Salmeterol Concentration” value (alkaline phosphatase; 30.82 Hours @ 37° C.) was 48.1 nmol/mL and the “Salmeterol Concentration” value (alkaline phosphatase; 34.97 Hours @ 37° C.) was 49.6 nmol/mL.

For `C[C@]12C=CC(=O)C=C1CC[C@H]1[C@@H]3C[C@H]4OC(c5cccnc5)O[C@@]4(C(=O)CO)[C@@]3(C)C[C@H](O)[C@@]12F` (single isomer, unassigned) [Example 22S-epimer], the IC50 (TNF-α) was over 1000 nM and the IC50 [1, 3] was 36 nM.

In the case of `C[C@]12C=CC(=O)C=C1CC[C@H]1[C@@H]3C[C@H]4OC(c5cccnc5)O[C@@]4(C(=O)CO)[C@@]3(C)C[C@H](O)[C@@]12F` (single isomer, unassigned) [Example 22R-epimer], the IC50 (TNF-α) is reported as 12 nM and the IC50 [1, 3] is reported as 0.89 nM.

With `C[C@]12C=CC(=O)C=C1CC[C@H]1[C@@H]3C[C@H]4O[C@@H](C5CCCCC5)O[C@@]4(C(=O)CN4CCOCC4)[C@@]3(C)C[C@H](O)[C@@]12F` [Example 34, 16,17-[(Cyclohexylmethylene)bis(oxy)]-9-fluoro-11-hydroxy-21-(4-morpholin-1-yl)-pregna-1,4-diene-3,20-dione[11β,16α(R)]] the IC50 (TNF-α; Homo sapiens, 24 h) was over 1000 nM and the IC50 [1, 2] was 20 nM.

With `C[C@]12C=CC(=O)C=C1CC[C@@H]1[C@@H]2[C@@H](O)C[C@@]2(C)[C@H]1C[C@H]1OC(c3cccnc3)O[C@]12C(=O)CO` (stereo partly shown) [Example 59] the IC50 (TNF-α; Homo sapiens, 24 h) was 85 nM, the IC50 [1, 2] was 2 nM and the “anti-inflammatory activity (cytokine release inhibition), assessment in words” value (cytokine release) was “potent”.

`C[C@]12C=CC(=O)C=C1CC[C@@H]1[C@@H]2[C@@H](O)C[C@@]2(C)[C@H]1C[C@H]1O[C@@H](C3CCCCC3)O[C@]12C(=O)CO` [Example 22, 16,17-[(Cyclohexylmethylene)bis(oxy)]-11,21-dihydroxypregna-1,4-diene-3,20-dione[11β,16α(R)]] gave an IC50 (TNF-α; Homo sapiens, 24 h) of 12 nM, an IC50 (IL-1β) of 2.1 nM and an IC50 [1, 2] of 1.5 nM.

With `CN1CCC(C2O[C@@H]3C[C@H]4[C@@H]5CCC6=CC(=O)C=C[C@]6(C)[C@H]5[C@@H](O)C[C@]4(C)[C@]3(C(=O)CO)O2)CC1` (stereo partly drawn) [Example 56, 16,17-[(1-Methylpiperidyl-4-methylene)bis(oxy)]-11,21-dihydroxypregna-1,4-diene-3,20-dione[11β,16α]] the “TNF-α secretion IC50” value (TNF-α) was “Not active”, the IC50 (IL-1β) was over 1000 nM and the “Immunosuppresion IC50” value ([1]; mouse splenic lymphocytes, 72 h/37° C., [3H]TMD incorporation) was “Not active”.

For `CN1CCN(CC(=O)[C@@]23O[C@H](C4CCCCC4)O[C@@H]2C[C@H]2[C@@H]4CCC5=CC(=O)C=C[C@]5(C)[C@H]4[C@@H](O)C[C@@]23C)CC1` [Example 26, 16,17-[(Cyclohexylmethylene)bis(oxy)]-11-hydroxy-21-(4-methylpiperazyn-1-yl)-pregna-1,4-diene-3,20-dione[11β,16α(R)]], the “TNF-α secretion IC50” value (TNF-α) was “Not active”, the IC50 (IL-1β) was over 1000 nM and the IC50 [1, 2] was 31 nM.

`C[C@]12C=CC(=O)C=C1CC[C@H]1[C@@H]3C[C@H]4OC(c5cccnc5)O[C@@]4(C(=O)CO)[C@@]3(C)C[C@H](O)[C@@]12F` (stereo partly shown) [Example 62] showed an IC50 (TNF-α) of 11 nM, an IC50 (IL-1β) of 350 nM and an IC50 [1, 3] of 1.9 nM. For the same compound, the “anti-inflammatory activity (cytokine release inhibition), assessment in words” value (cytokine release) was “potent” and the “Steroid 14 Concentration” value (alkaline phosphatase; mutual prodrug 17 + alkaline phosphatase, 2.10 Hours @ 37° C.) was 22.6 nmol/mL.

In the case of `CN1CCC(C2O[C@@H]3C[C@H]4[C@@H]5CCC6=CC(=O)C=C[C@]6(C)[C@@]5(F)[C@@H](O)C[C@]4(C)[C@]3(C(=O)CO)O2)CC1` (stereo partly drawn) [Example 57, 16,17-[(1-Methylpiperidyl-4-methylene)bis(oxy)]-9-fluoro-11,21-dihydroxypregna-1,4-diene-3,20-dione[11β,16α]], the “TNF-α secretion IC50” value (TNF-α) is reported as “Not active”, the IC50 (IL-1β) is reported as over 1000 nM and the IC50 [1, 2] is reported as over 1000 nM.

With `C[C@]12C=CC(=O)C=C1CC[C@H]1[C@@H]3C[C@H]4O[C@@H](C5CCCCC5)O[C@@]4(C(=O)Cn4ccnc4)[C@@]3(C)C[C@H](O)[C@@]12F` [Example 45, 16,17-[(Cyclohexylmethylene)bis(oxy)]-9-fluoro-11-hydroxy-21-(imidazol-1-yl)-pregna-1,4-diene-3,20-dione[11β,16α(R)]] the “TNF-α secretion IC50” value (TNF-α) was “Not active” and the IC50 [1, 2] was over 1000 nM.
